Laboratory results as given in patent publication US20260285857A1, “BICYCLIC AND HETEROCYCLIC AMIDE COMPOUNDS” (priority 2024, published 2026).

Test system: immunoglobulin light chain protein WIL-FL T46L
Experiment: Differential scanning fluorimetry (thermal shift) assay
Assay type: binding
Conditions: Table A; temperature shift [Tm]compound-[Tm]vehicle; recombinant WIL-FL T46L

Row | Compound | DSF
1 | Cc1cc(N2CC[C@](C)(c3ccccc3)C2)cn2nc(C(=O)NC3CC4(C3)CN(C3CC(C)(C(=O)O)C3)C4)nc12 (some centres unmarked) [Compound 371] | ***** (>2.5° C.=*****)
2 | Cc1n[nH]c(C2C3COC2(c2nc4c(C)cc(OC[C@H](C)c5ccccc5)cn4n2)C3)n1 (some centres unmarked) [Compound 436] | ***** (>2.5° C.=*****)
3 | Cc1cc(N2CC[C@](C)(c3ccccc3)C2)cn2nc(C34CC(CO3)C4CN)nc12 (some centres unmarked) [Compound 80] | ***** (>2.5° C.=*****)
4 | Cc1cc(N2CC[C@](C)(c3ccccc3)C2)cn2nc(C34CC(N5CC6C(C5)C6C(=O)O)(CO3)C4)nc12 (some centres unmarked) [Compound 63] | ***** (>2.5° C.=*****)
5 | COC(=O)CC1C2CN(C3CC4(CC(NC(=O)c5nc6c(C)cc(N7CC[C@](C)(c8ccccc8)C7)cn6n5)C4)C3)CC12 (some centres unmarked) [Compound 357] | ***** (>2.5° C.=*****)
6 | Cc1cc(N2CC[C@](C)(c3ccccc3)C2)cn2nc(C(=O)N3CC4(CCC4Oc4cccc(C(=O)O)n4)C3)nc12 (some centres unmarked) [Compound 216] | ***** (>2.5° C.=*****)
7 | Cc1cc(N2CC[C@](C)(c3ccccc3)C2)cn2nc(C(=O)NC3CCN(c4cncnc4)C3)nc12 (some centres unmarked) [Compound 190] | ***** (>2.5° C.=*****)
8 | CCC1(c2ccccc2)CN(c2cc(C)c3nc(C(=O)N4CC5CN(c6cccc(C(=O)O)n6)CC5C4)nn3c2)C1 (centres unmarked) [Compound 393] | ***** (>2.5° C.=*****)
9 | Cc1cc(N2CC[C@](C)(c3ccccc3)C2)cn2nc(C(=O)NC34CC3CN(c3cccc(C(=O)O)n3)C4)nc12 (some centres unmarked) [Compound 232] | ***** (>2.5° C.=*****)
10 | Cc1cc(N2CC[C@](C)(c3ccccc3)C2)cn2nc(C34CC(CO)(CO3)C4C#N)nc12 (some centres unmarked) [Compound 49] | ***** (>2.5° C.=*****)
11 | Cc1cc(N2CC3(c4ccccc4)CC2C3)cn2nc(C(=O)N3CC4CN(c5cccc(C(=O)O)n5)CC4C3)nc12 (centres unmarked) [Compound 431] | * (0-0.5° C.=*)
12 | Cc1cc(N2CCC(C)(C3CC4(CC4)C3)C2)cn2nc(C(=O)N3C[C@@H]4CN(c5cccc(C(=O)O)n5)C[C@@H]4C3)nc12 (stereo partly drawn) [Compound 23, 6-((3aR,6aS)-5-(8-methyl-6-(3-methyl-3-(spiro[2.3]hexan-5-yl)pyrrolidin-1-yl)-[1,2,4]triazolo[1,5-a]pyridine-2-carbonyl)hexahydropyrrolo[3,4-c]pyrrol-2(1H)-yl)picolinic acid] | **** (>1.5-2.5° C.=****)
13 | Cc1cc(N2CC[C@](C)(c3ccccc3)C2)cn2nc(C34CCC(N)(CC3)CO4)nc12 [Compound 64] | ***** (>2.5° C.=*****)
14 | Cc1cc(N2CC[C@](C)(c3ccccc3)C2)cn2nc(C(=O)NC3CCC34CN(c3cccc(C(=O)O)n3)C4)nc12 (some centres unmarked) [Compound 228] | ***** (>2.5° C.=*****)
15 | CNC(=O)c1nc2c(CN)cc(N3CC[C@](C)(c4ccccc4)C3)cn2n1 [Compound 335] | ***** (>2.5° C.=*****)
16 | COC(=O)C1CCN(C2COC23CC(NC(=O)c2nc4c(C)cc(N5CC[C@](C)(c6ccccc6)C5)cn4n2)C3)CC1 (some centres unmarked) [Compound 360] | ***** (>2.5° C.=*****)
17 | Cc1cc(N2CC[C@](C)(c3ccccc3)C2)cn2nc(C(=O)N[C@@H]3CNC[C@@H]3O)nc12 [Compound 191] | ***** (>2.5° C.=*****)
18 | CNC(=O)c1nc2c(C)cc(N3CC[C@](C)(c4ccccc4)C3)cn2n1 [Compound 170] | ***** (>2.5° C.=*****)
19 | COCC(C)(O)CNC(=O)c1nc2c(C)cc(N3CC[C@](C)(c4ccccc4)C3)cn2n1 (some centres unmarked) [Compound 138] | ***** (>2.5° C.=*****)
20 | Cc1cc(N2CC[C@](C)(c3ccccc3)C2)cn2nc(C(=O)N3CC[C@]4(CCN(c5cccc(C(=O)O)n5)C4)C3)nc12 [Compound 268] | ***** (>2.5° C.=*****)
21 | Cc1cc(N2CC[C@](C)(c3ccccc3)C2)cn2nc(C(=O)N(C)C3(C(=O)O)CC3)nc12 [Compound 164] | ***** (>2.5° C.=*****)
22 | Cc1cc(N2CC[C@](C)(c3ccccc3)C2)cn2nc(C(=O)NC3CCN(N4C[C@@H](O)[C@@H](O)C4)C3)nc12 (some centres unmarked) [Compound 156] | ***** (>2.5° C.=*****)
23 | Cc1cc(N2CC[C@](C)(c3ccccc3)C2)cn2nc(C34CC(CO3)C4c3nc(N)n[nH]3)nc12 (stereo partly drawn) [Compound 438, 5-[1-[8-methyl-6-[(3R)-3-methyl-3-phenyl-pyrrolidin-1-yl]-[1,2,4]triazolo[1,5-a]pyridine-2-yl]-2-oxabicyclo[2.1.1]hexan-5-yl]-1H-1,2,4-triazol-3-amine] | ***** (>2.5° C.=*****)
24 | Cc1cc(N2CC[C@](C)(c3ccccc3)C2)cn2nc(C(=O)N3C[C@H]4C[C@@H]3C[C@H]4Oc3cccc(C(=O)O)n3)nc12 [Compound 280] | ***** (>2.5° C.=*****)
25 | Cc1nnc(C2C3COC2(c2nc4c(C)cc(N5CC[C@](C)(c6ccccc6)C5)cn4n2)C3)o1 (some centres unmarked) [Compound 75] | ***** (>2.5° C.=*****)
26 | Cc1cc(N2CC[C@](C)(c3ccccc3)C2)cn2nc(C(=O)NC3CCS(=N)(=O)C3)nc12 (some centres unmarked) [Compound 147] | ***** (>2.5° C.=*****)

Same assay, conditions: Table B; temperature shift [Tm]compound-[Tm]vehicle; recombinant WIL-FL T46L

Row | Compound | DSF
27 | Cc1cc(N2CC[C@](C)(c3ccccc3)C2)cn2nc(C34CC(CO3)C4N3CC4(CCN(c5cccc(C(=O)O)n5)C4)NC3=O)nc12 (stereo partly drawn) [Compound 531, 6-[3-[1-[8-methyl-6-[(3R)-3-methyl-3-phenyl-pyrrolidin-1-yl]-[1,2,4]triazolo[1,5-a]pyridin-2-yl]-2-oxabicyclo[2.1.1]hexan-5-yl]-2-oxo-1,3,7-triazaspiro[4.4]nonan-7-yl]pyridine-2-carboxylic acid] | ***** (>2.5° C.=*****)
28 | Cc1cc(N2CC[C@](C)(c3ccccc3)C2)cn2nc(C34CC(CO3)C4N3CC4(CCC4)NC3=O)nc12 (stereo partly drawn) [Compound 532, 7-(1-(8-methyl-6-((R)-3-methyl-3-phenylpyrrolidin-1-yl)-[1,2,4]triazolo[1,5-a]pyridin-2-yl)-2-oxabicyclo[2.1.1]hexan-5-yl)-5,7-diazaspiro[3.4]octan-6-one] | ***** (>2.5° C.=*****)
29 | Cc1cc(N2CC[C@@](C)(n3ccc(C(F)(F)F)n3)C2)cn2nc(C(=O)N[C@@H]3CCN(c4cccc(C(=O)O)n4)CC34COC4)nc12 [Compound 701] | ***** (>2.5° C.=*****)
30 | Cc1cc(N2CC[C@](C)(c3ccccc3)C2)cn2nc(C34CC(NC(=O)Nc5cccc(C(=O)O)n5)(CO3)C4)nc12 [Compound 454] | ***** (>2.5° C.=*****)
31 | Cc1nc([C@H]2[C@]3(CO)CO[C@@]2(c2nc4c(C)cc(N5CC[C@](C)(c6ccccc6)C5)cn4n2)C3)n[nH]1 [Compound 581, ((1S,4R,5R)-5-(5-methyl-1H-1,2,4-triazol-3-yl)-1-(8-methyl-6-((R)-3-methyl-3-phenylpyrrolidin-1-yl)-[1,2,4]triazolo[1,5-a]pyridin-2-yl)-2-oxabicyclo[2.1.1]hexan-4-yl)methanol] | ***** (>2.5° C.=*****)
32 | COC(=O)NCC1C2COC1(c1nc3c(C)cc(N4CC[C@](C)(c5ccccc5)C4)cn3n1)C2 (some centres unmarked) [Compound 498] | ***** (>2.5° C.=*****)
33 | Cc1cc(N2CC[C@](C)(c3ccccc3)C2)cn2nc(C(=O)N3CC4CN(c5cccc(C(=O)O)n5)CC4(C#N)C3)nc12 (stereo partly drawn) [Compound 636, 6-[3a-cyano-5-[8-methyl-6-[(3R)-3-methyl-3-phenyl-pyrrolidin-1-yl]-[1,2,4]triazolo[1,5-a]pyridine-2-carbonyl]-3,4,6,6a-tetrahydro-1H-pyrrolo[3,4-c]pyrrol-2-yl]pyridine-2-carboxylic acid] | ***** (>2.5° C.=*****)
34 | CC(=O)NC12COC(c3nc4c(C)cc(N5CC[C@](C)(c6ccccc6)C5)cn4n3)(C1)C2c1nc(C)n(C)n1 (some centres unmarked) [Compound 540] | ***** (>2.5° C.=*****)
35 | Cc1cc(N2CC[C@](C)(c3ccccc3)C2)cn2nc(C(=O)N[C@H]3C[C@@]4(CCN(c5cccc(C(=O)O)n5)C4)C3)nc12 [Compound 624] | ***** (>2.5° C.=*****)
36 | Cc1cc(N2CC[C@](C)(c3ccccc3)C2)cn2nc(C34CC(C(=O)NC(C)C)(CO3)C4)nc12 [Compound 443] | ***** (>2.5° C.=*****)
37 | Cc1cc(N2CC[C@](C)(c3ccccc3)C2)cn2nc(C34CC(NC(=O)c5cccc(C(=O)O)n5)(CO3)C4)nc12 [Compound 466, (R)-6-((1-(8-methyl-6-(3-methyl-3-phenylpyrrolidin-1-yl)-[1,2,4]triazolo[1,5-a]pyridin-2-yl)-2-oxabicyclo[2.1.1]hexan-4-yl)carbamoyl)picolinic acid] | ***** (>2.5° C.=*****)
38 | Cc1cc(N2CC[C@](C)(c3ccccc3)C2)cn2nc(C34CC(CO)(CO3)C4c3nnnn3C)nc12 (some centres unmarked) [Compound 571] | ***** (>2.5° C.=*****)
39 | Cc1cc(N2CC[C@](C)(c3ccccc3)C2)cn2nc(C(=O)NC3CC4(CCC4Nc4cccc(C(=O)O)n4)C3)nc12 (stereo partly drawn) [Compound 662, 6-((6-(8-methyl-6-((R)-3-methyl-3-phenylpyrrolidin-1-yl)-[1,2,4]triazolo[1,5-a]pyridine-2-carboxamido)spiro[3.3]heptan-1-yl)amino)picolinic acid] | ***** (>2.5° C.=*****)
40 | Cc1cc(N2CC[C@](C)(c3ccccc3)C2)cn2nc(C(=O)NC3CC4(C3)CC(N3CCC(C(=O)O)CC3)C4)nc12 (some centres unmarked) [Compound 599] | ***** (>2.5° C.=*****)
41 | Cc1cc(N2CC[C@@](C)(n3ccc(C(F)(F)F)n3)C2)cn2nc(C34CC(CO3)C4c3nc(N)n[nH]3)nc12 (stereo partly drawn) [Compound 496, 5-(1-(8-methyl-6-((R)-3-methyl-3-(3-(trifluoromethyl)-1H-pyrazol-1-yl)pyrrolidin-1-yl)-[1,2,4]triazolo[1,5-a]pyridin-2-yl)-2-oxabicyclo[2.1.1]hexan-5-yl)-1H-1,2,4-triazol-3-amine] | **** (>1.5-2.5° C.=****)
42 | Cc1cc(N2CC[C@](C)(c3ccccc3)C2)cn2nc(C34CC(CO)(CO3)C4N3CC4(COC4)NC3=O)nc12 (some centres unmarked) [Compound 577] | ***** (>2.5° C.=*****)
43 | Cc1cc(N2CC[C@](C)(c3ccccc3)C2)cn2nc(C(=O)N3CC[C@@]4(CCN(C(=O)c5cccc(C(=O)O)n5)C4)C3)nc12 [Compound 715] | ***** (>2.5° C.=*****)
44 | Cc1cc(N2CC[C@](C)(c3ccccc3Cl)C2)cn2nc(C34CC(CO3)C4N3CC4(CC4)NC3=O)nc12 (stereo partly drawn) [Compound 513, 6-[1-[6-[(3R)-3-(2-chlorophenyl)-3-methyl-pyrrolidin-1-yl]-8-methyl-[1,2,4]triazolo[1,5-a]pyridin-2-yl]-2-oxabicyclo[2.1.1]hexan-5-yl]-4,6-diazaspiro[2.4]heptan-5-one] | ***** (>2.5° C.=*****)
